Laboratory results taken from patent US20030113813A1, “Methods and devices for the integrated discovery of cell culture environments” (priority 2001, published 2003).

Test system: MC3T3-E1 cells
Experiment: Cell attachment and growth on modified (HA-coated, periodate-oxidized) surfaces carrying bioactive agents
Type: cell-based, murine
Conditions: for cell attachment and growth: FIG. 4A, immobilized HA surface treated with lowest (3 mM) periodate concentration, collagen 3.2 mg/ml, laminin 2 mg/ml
Excerpt: MC3T3-E1 cells were used to determine the effect of different bioactive agents for creation of bioactive surfaces influencing the growth and differentiation of these osteoblasts (also considered to be osteogenic stem cells). These cells are from a clonal line of murine calvaria-derived osteoblast (establishment of a clonal osteogenic cell line from newborn mouse calvaria describe in J Oral Biol 23:899 (1981)). The cells are maintained in α-MEM (GIBCO Catalog #12561) supplemented with 2% fetal calf serum (FCS; inactivated) and 100 units or μg/ml penicillin/streptomycin.
The cells were seeded at a concentration of approximately 10^4 cells/20 ml culture medium in a 250 ml canted neck polystyrene tissue culture-treated flask. Cells were cultured until they reach about 2×10^6 cells/flask. Cells were harvested and resuspended in 5 ml of α-MEM with 2% FCS to a final cell concentration of about 4×10^4 cells/100 μl.
The surface modified slide was placed into a polystyrene Petri dish and covered with the cells for 30 minutes. […] To quantitate cell attachment and growth, an image of the slide or other surface after staining with hematoxylin/eosin was captured using a color scanner, and the density determined using the Scion Image analysis program.

| Substance | cell growth on ECM peptide surface vs. control surface (FIGS. 4B-4F, RGDSP 1 mg/ml deposited on oxidized HA surface) | cell attachment and growth | cell density on bioactive agent (FIG. 2, cells grown on microarray of bioactive agents coupled to HA surface, fluorescent staining) |
| --- | --- | --- | --- |
| Arg-Gly-Asp-Ser-Pro (RGDSP) (printed: Arg-Gly-Asp-Ser-Pro) [ECM adhesion peptide from AnaSpec Inc, reference compound] | cells grew only on the surfaces onto which RGDSP was deposited | – | – |
| collagen | – | supported cell attachment and growth | – |
| laminin | – | supported cell attachment and growth | cell density was greater on Vitrogen™ than on laminin |
